In US7091351B2, “Vanadium compounds for treating cancer” (Parker Hughes Institute, priority 1998, dated 2006):

Experiments:
[1] = test system: MOLT-3 cells; experiment: MTT cytotoxicity assay of oxovanadium(IV) compounds, MOLT-3; format: cell-based, human; settings: 48 hr
Description: (§1) The cytotoxicity of oxovanadium (W) complexes listed in Table 6 were tested against 9 different human cancer cell lines was performed using the MTT (3-[4,5-dimethylthiazol-2-yl]-2,5-diphenyl tetrazolium bromide) assay (Boehringer Mannheim Corp., Indianapolis, Ind.) as described previously (20). Briefly, exponentially growing tumor cells were seeded into a 96-well plate at a density of 4×10^4cells/well and incubated with medium containing the oxovanadium(IV) compounds concentrations ranging from 0.1 to 250 μM for 48 hours at 37° C. in a humidified 5% CO2 atmosphere. Triplicate wells were used for each treatment. To each well, 10 μl of MTT (0.5 mg/ml final concentration) was added and the plates were incubated at 37° C. for 4 hours to allow MTT to form formazan crystals by reacting with metabolically active cells . The formazan crystals were solubilized overnight at 37° C. in a solution containing 10% SDS in 0.01 M HCl. The absorbence of each well was measured in a microplate reader (Labsystems) at 540 nm and a reference wavelength of 690 nm. To translate the OD540 values into the number of live cells in each well, the OD540 values were compared to those on standard OD540—versus—cell number curves generated for each cell line. The percent survival was calculated using the formula: % survival=Live cell number[test]/Live cell number [control]×100. The IC50 values were calculated by non-linear regression analysis using an Graphpad Prism software version 2.0 (Graphpad Software, Inc., San Diego, Calif.).

[2] = test system: U266BL multiple myeloma cells; experiment: MTT cytotoxicity assay of oxovanadium(IV) compounds, U266BL; format: cell-based, human; settings: 48 hr
Description: as §1

[3] = test system: U373 glioblastoma cells; experiment: Cytotoxic activity of oxovanadium(IV) compounds, U373; format: cell-based, human; settings: read-out: Cytotoxic Activity U373
Description: as §1

[4] = test system: 833-K testicular cancer cells; experiment: Cytotoxic activity of oxovanadium(IV) compounds, 833-K; format: cell-based, human; settings: read-out: Cytotoxic Activity 833-K
Description: as §1

[5] = test system: NALM-6 cells; experiment: In situ detection of apoptosis, confocal microscopy, NALM-6; format: cell-based, human; settings: 48 hours after treatment
Description: (§2) Exponentially growing cells were seeded in 6-well tissue culture plates and incubated with fresh medium containing compounds. […] The cells were fixed in 2% paraformaldehyde, washed with PBS and pelleted by centrifuging the tubes at 1000 rpm for 5 min. Cells pellets were resuspended in 50 μl of PBS, transferred to superforst plus slides and allowed to attach for 15 min. The cells were permeabilized with 0.1% triton X-100 in 0.1% citrate buffer and incubated for 1 hr at 37° C. with the reaction mixture containing terminal deoxynucleotidyl transferase (TdT) and fluorescein isothiocyanate (FITC)-conjugated dUTP. Cells were washed with PBS to remove unbound reagents and the coverslips were mounted onto slides with Vectashield containing propidium iodide (Vector Labs, Burlingame, Calif.) and slides were viewed with a confocal laser scanning microscope. […] In control reactions, the TdT enzyme was omitted from the reaction mixture.

[6] = test system: HL-60 cells; experiment: MTT cytotoxicity assay of oxovanadium(IV) compounds, HL-60; format: cell-based, human; settings: 48 hr
Description: as §1

[7] = test system: HS445 Hodgkin's lymphoma cells; experiment: MTT cytotoxicity assay of oxovanadium(IV) compounds, HS445; format: cell-based, human; settings: 48 hr
Description: as §1

[8] = test system: BT20 breast cancer cells; experiment: Cytotoxic activity of oxovanadium(IV) compounds, BT20; format: cell-based, human; settings: read-out: Cytotoxic Activity BT20
Description: as §1

[9] = test system: HS-SULTAN cells; experiment: In situ detection of apoptosis, confocal microscopy, HS-SULTAN; format: cell-based, human; settings: 48 hours after treatment
Description: as §2

[10] = test system: 64cp5 testicular cancer cells; experiment: Cytotoxic activity of oxovanadium(IV) compounds, 64cp5; format: cell-based, human; settings: read-out: Cytotoxic Activity 64cp5
Description: as §1

[11] = test system: NALM-6 cells; experiment: MTT cytotoxicity assay of oxovanadium(IV) compounds, NALM-6; format: cell-based, human; settings: 48 hr
Description: as §1

[12] = test system: ARH77 multiple myeloma cells; experiment: MTT cytotoxicity assay of oxovanadium(IV) compounds, ARH77; format: cell-based, human; settings: 48 hr
Description: as §1, with “Briefly, exponentially growing tumor cells were seeded into a 96-well plate at a density of 4×10^4cells/well and incubated with medium containing the oxovanadium(IV) compounds concentrations ranging from 0.1 to 250 μM for 48 hours at 37° C. in a humidified 5% CO2 atmosphere.” left out

[13] = test system: NTD1 testicular cancer cells; experiment: Cytotoxic activity of oxovanadium(IV) compounds, NTD1; format: cell-based, human; settings: read-out: Cytotoxic Activity NTD1
Description: as §1

[14] = test system: PC3 prostate cancer cells; experiment: Cytotoxic activity of oxovanadium(IV) compounds, PC3; format: cell-based, human; settings: read-out: Cytotoxic Activity PC3
Description: as §1

[15] = test system: Tera-2 testicular cancer cells; experiment: Cytotoxic activity of oxovanadium(IV) compounds, TERA-2; format: cell-based, human; settings: read-out: Cytotoxic Activity TERA-2
Description: as §1

[16] = test system: HS-SULTAN multiple myeloma cells; experiment: MTT cytotoxicity assay of oxovanadium(IV) compounds, HS-SULTAN; format: cell-based, human; settings: 48 hr
Description: as §1

[17] = test system: Tera-2 testicular cancer cells; experiment: MTT cytotoxicity assay of vanadocenes, TERA-2 cells; format: cell-based, human; settings: 24 h, 1.9-250 μM
Description: (§3) Human testicular cancer cell lines, Tera-2 (embryonal carcinoma) and Ntera-2 (pluripotent embryonal carcinoma) were obtained from the American Type Culture Collection (ATCC) (Rockeville, Md.) and propagated in T-25, T-75, or T-150 cm^2 tissue culture flasks (Corning Corp., Corning, N.Y.) in McCoy's 5A medium and Dulbecco's modified Eagle's medium respectively. Both media were supplemented with 10% fetal calf serum (FCS), 4 mM glutamine, 100 U/ml penicillin G, and […] streptomycin sulfate. All tissue culture reagents were obtained from Life Technologies Inc. (GIBCO-BRL), Gaithersburg, Md. Cell lines were cultivated for a minimum of two passages after thawing prior to experimentation. Other cell lines that were used in this study were the human B-lineage acute lymphoblastic leukemia (ALL) cell line NALM-6. Uckun, F. M., Evans, W. E., Forsyth, C. J., Waddick, K. G., Tuel-Ahlgren, L., Chelstrom, L. M., Burkhardt, A., Bolen, J., Myers, D. E. Biotherapy of B-cell precursor leukemia by targeting genistein to CD19-associated tyrosine kinase. Science (Washington DC) 267:886–91, 1995; T-lineage ALL cell line MOLT-3, Waurzyniak, B., Shneider, E. A., Tumer, N., Yanishevski, Y., Gunther, R., Chelstrom, L., Wendorf, H., Myers, D. E., Irvin, J. D., Messinger, Y., Ek, O., Zeren, T., Chandan-Langlie, M., Evans, W. E., Uckun, F. M. In vivo toxicity, pharmacokinetics, and antileukemic activity of TXU (anti-CD7)-pokeweed antiviral protein immunotoxin. Clinical Cancer Research 3:881–890, 1997; AML cell line HL-60, Perentesis, J. P., Waddick, K. G., Bendel, A. E., Shao, Y., Warman, B. E., Chandan-Langlie, M., and Uckun, F. M. Induction of apoptosis in multi-drug resistant andradiation-resistant acute myeloid leukemia cells by a recombinant fusion toxin directed against the granulocyte macrophage colony stimulating factor receptor. Clin. Cancer Res. 3:347–355, 1997; breast cancer cell lines MDA-MB-231 and BT-20, Uckun, F. M., Narla, R. K., Jun, X., Zeren, T., Venkatachalam, T., Waddick, K. G., Rostostev, A., Myers, D. E. Cytotoxic activity of EGF-genstein against breast cancer cells. Clin. Cancer Res. 4:901–912, 1998; glioblastoma cell lines U87 and U373, Narla, R. K., Liu, X., Myers, D. E., and Uckun, F. M. 4-(3′-Bromo-4′hydroxylphenyl)-amino-6,7-dimethoxyquinazoline (WHI-P154): A novel quinazoline derivative with potent cytotoxic activity against human glioblastoma cells. Clin. Cancer Res. 4:1405–1414, 1998.
(§4) MTT (3-[4,5-dimethyl thiazol-2-yl]-2,5-diphenyltetrazolium bromide)-based colorimetric assays were used for evaluation of the cytotoxicity of vanadocene compounds. Mosmann, T. Rapid colorimetric assay for cellular growth and survival: application to proliferation and cytotoxicity assays. J. Immunol. Methods, 65: 55–63, 1983. Briefly, cells were harvested with 0.125% (w/v) trypsin-0.02% EDTA (GIBCO-BRL) from exponential-phase maintenance cultures and centrifuged (300 g×5 min). After suspension and counting, cells were dispensed within triplicate 96-well tissue culture plates in 100 μl volumes. After 24 h incubation, the culture medium was discarded and replaced with 100 μl of fresh medium containing serial two-fold dilutions of drugs in medium to yield 1.9 μM to 250 μM. All compounds were reconstituted in DMSO to a concentration of 100 mM, and the stock solution was made fresh for each experiment. Control wells consisted of medium containing 0.25% of DMSO alone were used for solvent control. Culture plates were then incubated for 24 h before adding 10 μl of MTT solution (5 mg/ml in PBS) to each well. Wells containing only medium and MTT were used as controls for each plate. The tetrazolium/formazan reaction was allowed to proceed for 4 h at 37° C., and then 100 μl of the solubilization buffer (10% sodium dodecyl sulfate in 0.1% HCl) were added to all wells and mixed thoroughly to dissolve the dark blue formazan crystals. […]

[18] = test system: Ntera-2 testicular cancer cells; experiment: MTT cytotoxicity assay of vanadocenes, NTERA-2 cells; format: cell-based, human; settings: 24 h, 1.9-250 μM
Description: as §3, §4

[19] = test system: Tera-2 and Ntera-2 human testicular cancer cell lines; experiment: MTT cytotoxicity assay, text statements for both testicular cancer cell lines; format: cell-based; settings: Tera-2 and Ntera-2, tested side-by-side, up to 250 μM; read-out: IC50 (cytotoxicity, two testicular cancer cell lines)
Description: Human testicular cancer cell lines, Tera-2 (embryonal carcinoma) and Ntera-2 (pluripotent embryonal carcinoma) were obtained from the American Type Culture Collection (ATCC) (Rockeville, Md.) and propagated in T-25, T-75, or T-150 cm^2 tissue culture flasks (Corning Corp., Corning, N.Y.) in McCoy's 5A medium and Dulbecco's modified Eagle's medium respectively. Both media were supplemented with 10% fetal calf serum (FCS), 4 mM glutamine, 100 U/ml penicillin G, and 100 mg/ml streptomycin sulfate. All tissue culture reagents were obtained from Life Technologies Inc. (GIBCO-BRL), Gaithersburg, Md. Cell lines were cultivated for a minimum of two passages after thawing prior to experimentation.
MTT (3-[4,5-dimethyl thiazol-2-yl]-2,5-diphenyltetrazolium bromide)-based colorimetric assays were used for evaluation of the cytotoxicity of vanadocene compounds. […] Briefly, cells were harvested with 0.125% (w/v) trypsin-0.02% EDTA (GIBCO-BRL) from exponential-phase maintenance cultures and centrifuged (300 g×5 min). After suspension and counting, cells were dispensed within triplicate 96-well tissue culture plates in 100 μl volumes. […] After an overnight incubation at 37° C., the optical densities at 540 nm were measured using a 96-well multiscanner autoreader, with the solubilization buffer serving as blank. All assays were run in triplicate and results were expressed as IC50 values.

Molecule | IC50 [1] [µM] | IC50 [2] [µM] | IC50 [3] [µM] | IC50 [4] [µM] | apoptotic nuclei (FITC-dUTP / propidium iodide), NALM-6 [5] | IC50 [6] [µM] | IC50 [7] [µM] | IC50 [8] [µM] | apoptotic nuclei (FITC-dUTP / propidium iodide), HS-SULTAN [9] | IC50 [10] [µM] | IC50 [11] [µM] | IC50 [12] [µM] | IC50 [13] [µM] | IC50 [14] [µM] | IC50 [15] [µM] | IC50 [16] [µM] | IC50 [17] [µM] | IC50 [18] [µM] | IC50 [19] [µM]
(diaqua)(4,7-dimethyl-1,10-phenanthroline)oxovanadium(IV) sulfate [Compound 28] | 1.37 ± 0.07 | 1.3 ± 0.1 | 2.2 | 6 | many apoptotic yellow nuclei | 6.2 ± 2.3 | 3.3 ± 1.4 | 2.1 | many apoptotic yellow nuclei | 15.2 | 0.78 ± 0.1 | 8.1 ± 1.6 | 12.8 | 5.8 | 57.6 | 5.1 ± 1.02 |  |  | 
O=S(=O)([O-])[O-].[O]=[V+2] [VDSO4, vanadyl(IV) sulfate, reference compound] |  |  |  |  |  |  |  |  |  |  |  |  |  |  |  |  | > 250 | > 250 | > 250
